Measurements reported in patent US20230321074A1, “USE OF CHIAURANIB IN COMBINATION WITH IMMUNE CHECKPOINT INHIBITOR IN ANTITUMOR THERAPY” (SHENZHEN CHIPSCREEN BIOSCIENCES, CO., LTD., priority 2020, published 2023).
Several values for one entry are separate records, joined by “and”; a condition that tells them apart may be missing. Identical values can stand only once. Entries after “also recorded” stand apart in the source; their conditions may differ.

How the values were obtained:
[1] = tested on: colonic cancer cell line CT-26; experiment: Efficacy on tumor Balb/c mouse models inoculated with colonic cancer cell line CT-26 (tumor volume); format: in vivo; conditions: CT-26 in Balb/c mice; chiauranib 20 mg/kg intragastric once a day; PD-1 antibody 10 mg/kg i.p. twice a week; vs solvent control
Experimental: A large number of CT-26 cells were cultured and kept in a logarithmic growth state. After the number of cells reached a required level, the cells were digested and collected by trypsin, thoroughly washed twice with a large amount of PBS to remove trypsin and serum components, centrifuged at room temperature at 800 rpm for 10 min, and a supernatant was discarded. The cells were resuspended in DMEM without FBS, and the cell concentration was adjusted to 5×10^6 cells/mL.
Under sterile conditions, the cell suspension was injected subcutaneously into the back of Balb/c mice at 100 μL/injection, one injection per mouse. […]
(§1) 8 days after cell inoculation, tumors grew to an average volume of about 100 mm^3, and the tumor-bearing mice were randomly divided into four groups (9 mice per group), that is, a solvent control group, a chiauranib group (20 mg/kg, intragastric administration, once a day), a PD-1 antibody group (10 mg/kg, intraperitoneal injection, twice a week), and a chiauranib and PD-1 antibody combined administration group, marked, raised in separate cages, administered daily in groups, and observed for tumor formation. The longest diameter (length) and the widest diameter (width) perpendicular to the longest diameter of the tumor was measured by using a vernier caliper every 2 days, and the tumor volume was calculated according to a formula: TS=length×(width)^2/2, and recorded. […]

[2] = tested on: spleen lymphocyte subsets CD4 and CD8; experiment: Proportions of spleen lymphocyte subsets in CT-26 tumor-bearing mice (flow cytometry); format: in vivo, mouse; conditions: CT-26 tumor-bearing Balb/c mice; chiauranib 20 mg/kg intragastric once a day; PD-1 antibody 10 mg/kg i.p. twice a week; after last administration on 14th day
Experimental: as §1, with “recorded. The mice were subjected to intragastric administration once a day regularly, and after the last administration on the 14th day, the mice were sacrificed to take the spleens and make a single cell suspension. 1×10^6 spleen cells were taken and stained with fluorescein labelled anti-CD4 and CD8 antibodies (1:200) at 4° C. for 30 min. After being washed, the cells were resuspended in PBS, and detected by using a flow cytometer FACSCanto II.” for “recorded.”

[3] = tested on: mouse liver cancer H22 cells; experiment: Efficacy on female BALB/c mouse models subcutaneously transplanted with mouse liver cancer H22 cell line; format: in vivo
Experimental: Mouse liver cancer H22 cells (purchased from CCTCC; cell No. TC-00011) were cultured in an RPMI-1640 medium (purchased from Gibco) containing 10% fetal bovine serum. H22 cells in exponential growth phase were collected, resuspended in PBS to an appropriate concentration, and subcutaneously inoculated into mice. Female mice were subcutaneously inoculated with 1×10^6 H22 cells on the right front side. After tumors grew to an average volume of 104 mm^3, the mice were randomly grouped (see Table 1) according to the tumor size, administration was carried out on the day of grouping, and the day of inoculation of tumor cells was defined as day 0.
On the 19th day of the experiment (day 15 of administration in groups), an average tumor volume of the solvent control group was measured to be 2060.99 mm^3, the experiment was completed, photos of the tumor-bearing mice were taken, the tumors were taken out and weighed, and photos of the tumors were taken. A formula for calculating tumor volume: tumor volume (mm^3)=1/2×(a×b^2) (where, a represents a long diameter, and b represents a short diameter).

[4] = Body weight, deaths and tolerability in H22 tumor-bearing BALB/c mice; format: in vivo; conditions: H22 model
[5] = tested on: MC38-hPD-L1 colon cancer cells; experiment: Efficacy on B-hPD-1/hPD-L1 humanized mouse MC38-hPD-L1 colon cancer model; format: in vivo; conditions: for inhibitory effect on growth of MC38-hPD-L1 subcutaneously transplanted tumors (experiment summary): at test doses: chiauranib 2.5 mg/kg; for inhibitory effect on growth of MC38-hPD-L1 subcutaneously transplanted tumors (experiment summary) / inhibitory effect on growth of MC38-hPD-L1 subcutaneously transplanted tumors (tumor volume) / inhibitory effect on growth of MC38-hPD-L1 subcutaneously transplanted tumors (tumor weight): reference PD-L1 antibody 1 mg/kg and 3 mg/kg; for Tumor volume (mm^3) before administration: baseline; for Tumor volume (mm^3) before administration / Tumor volume (mm^3) Day 27 of administration in groups / Tumor weight: mean ± standard error; for inhibitory effect on growth of MC38-hPD-L1 subcutaneously transplanted tumors (tumor volume): day 27, P<0.05 vs control; for inhibitory effect on growth of MC38-hPD-L1 subcutaneously transplanted tumors (tumor volume) / inhibitory effect on growth of MC38-hPD-L1 subcutaneously transplanted tumors (tumor weight): chiauranib 2.5 mg/kg; for inhibitory effect on growth of MC38-hPD-L1 subcutaneously transplanted tumors (tumor weight) / Tumor weight: end of experiment; for inhibitory effect on growth of MC38-hPD-L1 subcutaneously transplanted tumors (tumor weight): P<0.05 vs control; for Tumor weight / TGITV (%) / TGITW (%): day 27; for TGITV (%): tumor inhibition rate by tumor volume; for TGITW (%): tumor weight inhibition
Experimental: Mouse colon cancer MC38 cells were purchased from Shunran Biology, cultured in an incubator under 5% CO2 at 37° C., and a medium was Dulbecco's Modified Eagle's Medium containing 10% inactivated fetal bovine serum. Biocytogen carried out genetic modification on the MC38 cells to enable the MC38 cells to overexpress human PD-L1, and knocked out mouse PD-L1, and the cells were named MC38-hPD-L1 cells. A reference PD-L1 antibody used in the experiment was constructed and produced by the in-house laboratory according to a sequence of the marketed antibody drug MPDL3280A.
(§2) A certain number of cells were cultured and collected, the MC38-hPD-L1 cells resuspended in PBS were subcutaneously inoculated into B-hPD-1/hPD-L1 humanized mice on the right side at a concentration of 5×10^5 cells/0.1 mL and a dose of 0.1 mL/mouse. After an average tumor volume reached about 104 mm^3, appropriate mice were selected according to tumor volume and body weight, and uniformly divided into 6 experimental groups, 8 mice per group, and administration was carried out on the day of grouping.
Results were recorded, tumor inhibition rates (TGITV) were calculated, and statistical analysis between groups was carried out according to tumor volume.

[6] = Body weight and tolerability in B-hPD-1/hPD-L1 humanized mice transplanted with MC38-hPD-L1; format: in vivo, mouse; conditions: for Body weight (g) before administration / Body weight change (g) Day 27 of administration / Body weight (g) Day 27 of administration in groups: MC38-hPD-L1 model; for Body weight (g) before administration: baseline; for Body weight (g) before administration / Body weight (g) Day 27 of administration in groups: mean ± standard error; for toxic side effects on animals / safety: at test doses: chiauranib 2.5 mg/kg, reference PD-L1 antibody 1 mg/kg and 3 mg/kg
Experimental: as §2

[7] = cited from earlier work
[8] = chiauranib 5 mg/kg p.o. QD, mouse PD-1 antibody 5 mg/kg i.p. BIW
[9] = groups G2, G3, G5 (chiauranib 2.5 mg/kg; Reference PD-L1 antibody 1 mg/kg)
[10] = chiauranib 2.5 mg/kg p.o. QD, Reference PD-L1 antibody 1 mg/kg i.p. Q3D
[11] = Reference PD-L1 antibody 3 mg/kg i.p. Q3D, chiauranib 2.5 mg/kg p.o. QD in the combination
[12] = groups G4, G6 (Reference PD-L1 antibody 3 mg/kg; chiauranib 2.5 mg/kg in the combination)

For `COc1ccc2c(Oc3ccc4c(C(=O)Nc5ccccc5N)cccc4c3)ccnc2c1` [chiauranib, Chiauranib], the “relative tumor inhibition rate” value [1] was 39%, the “average proportion of spleen lymphocyte subset CD4” value [2] was 9.9% and the “average proportion of spleen lymphocyte subset CD8” value [2] was 6.1%. For the same molecule, the “TGI (%) Day 19 (relative tumor inhibition rate)” value ([3]; (1 - T/C) x 100%, chiauranib 5 mg/kg p.o. QD, mouse PD-1 antibody 5 mg/kg i.p. BIW) was 26%, the “T/C (%) Day 19” value ([3]; TRTV/CRTV x 100%, chiauranib 5 mg/kg p.o. QD, mouse PD-1 antibody 5 mg/kg i.p. BIW) was 74% and the “Tumor volume (mm^3) Day 19” value ([3]; day 15 of administration, chiauranib 5 mg/kg p.o. QD x 15 days, mouse PD-1 antibody 5 mg/kg i.p. BIW x 5, mean ± standard error) was 1527.40 mm^3 and 1527.40 ± 145.56 mm^3. The “Tumor volume (mm^3) Day 5” value ([3]; day of grouping, baseline before treatment, mean ± standard error) was 104.09 ± 2.73 mm^3, the RTV ([3]; relative tumor volume Vt/V0, Day 19, chiauranib 5 mg/kg p.o. QD, mouse PD-1 antibody 5 mg/kg i.p. BIW) was 14.51 and the “Body weight change rate (%) Day 19” value [4, 8] was 5.59%. The “Number of animals of experiment at the beginning/end” value [4, 8] was 10/10, the “Average body weight (g) Day 5” value ([4]; day of grouping, baseline, mean ± standard error) was 21.3 ± 0.3 g and the “Average body weight (g) Day 19” value ([4]; end of experiment, chiauranib 5 mg/kg p.o. QD, mouse PD-1 antibody 5 mg/kg i.p. BIW, mean ± standard error) was 22.4 ± 0.3 g. The “inhibitory effect on growth of MC38-hPD-L1 subcutaneously transplanted tumors (experiment summary)” value [5] was “significant inhibitory effects”, the “Tumor volume (mm^3) before administration” value [5, 9] was 104 ± 4 mm^3 and the “Tumor volume (mm^3) Day 27 of administration in groups” value (“Tumor volume … in groups” below) [5, 10] was 1021 ± 158 mm^3. The “inhibitory effect on growth of MC38-hPD-L1 subcutaneously transplanted tumors (tumor volume)” value [5] was “significant inhibitory effects”, the “inhibitory effect on growth of MC38-hPD-L1 subcutaneously transplanted tumors (tumor weight)” value [5] was “significant inhibitory effects” and the “Tumor weight” value [5, 10] was 0.837 ± 0.108 g. The “TGITV (%)” value [5, 10] was 58.6%, the “TGITW (%)” value [5, 10] was 61.7% and the “Body weight (g) before administration” value [6, 9] was 21.1 ± 0.3 g. For the same molecule, the “Body weight change (g) Day 27 of administration” value [6, 10] was “+3.1 g”, the “Body weight (g) Day 27 of administration in groups” value (“Body weight … in groups” below) [6, 10] was 24.2 ± 0.6 g and the “toxic side effects on animals / safety” value [6] was “do not produce toxic side effects to animals; also recorded: do not produce toxic and side effects on animals”.

For “Reference PD-L1 antibody: constructed and produced by the in-house laboratory according to a sequence of the marketed antibody drug MPDL3280A”, the “Tumor volume … in groups” value [5, 11] was 1207 ± 195 mm^3, the “inhibitory effect on growth of MC38-hPD-L1 subcutaneously transplanted tumors (experiment summary)” value [5] was “significant inhibitory effects” and the “Tumor volume (mm^3) before administration” value [5, 9] was 104 ± 4 mm^3. For the same molecule, the “Tumor volume (mm^3) before administration” value [5, 12] was 104 ± 3 mm^3, the “Tumor volume … in groups” value [5, 10] was 1469 ± 144 mm^3 and the “inhibitory effect on growth of MC38-hPD-L1 subcutaneously transplanted tumors (tumor volume)” value [5] was “significant inhibitory effects”. The “inhibitory effect on growth of MC38-hPD-L1 subcutaneously transplanted tumors (tumor weight)” value [5] was “significant inhibitory effects”, the “Tumor weight” value [5, 11] was 1.182 ± 0.199 g and the “Tumor weight” value [5, 10] was 1.316 ± 0.106 g. The “TGITV (%)” value [5, 11] was 50.3%, the “TGITV (%)” value [5, 10] was 38.5% and the “TGITW (%)” value [5, 11] was 45.9%. For the same molecule, the “TGITW (%)” value [5, 10] was 39.8%, the “Body weight change (g) Day 27 of administration” value [6, 11] was “+3.7 g” and the “Body weight … in groups” value [6, 11] was 25.0 ± 0.5 g. The “Body weight (g) before administration” value [6, 9] was 21.6 ± 0.3 g, the “Body weight (g) before administration” value [6, 12] was 21.3 ± 0.5 g and the “Body weight change (g) Day 27 of administration” value [6, 10] was “+3.8 g”. For the same molecule, the “Body weight … in groups” value [6, 10] was 25.4 ± 0.4 g and the “toxic side effects on animals / safety” value [6] was “do not produce toxic side effects to animals; also recorded: do not produce toxic and side effects on animals”.

For “avelumab+BSC: PD-L1 antibody drug avelumab (Bavencio, Pfizer and Merck KGaA) plus best supportive care”, the “median OS” value ([7]; patients with advanced UC after platinum-based chemotherapy) is given as 21.4 months, the “overall survival (OS) hazard ratio [HR]” value ([7]; vs BSC alone, 95% CI 0.56, 0.86, 1-sided p=0.0005, all enrolled patients) is given as 0.69 and the “increase of OS” value ([7]; vs BSC group) is given as “more than 7 months”.
